Legend:
Assay in all cases: relative viability (nuclei count vs DMSO), 5 days (fraction); higher = more cells survive
[1] = system: NCI-H1563
In short: (§1)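 The day after seeding in 1536-well plates, lung cancer cell lines were treated by pin tool with a single drug, or with a fixed anchor-drug dose together with five library-drug doses (not always all listed) in √10 steps. After 5 days, a combined fix-and-stain solution (final 0.05% Triton X-100, 1% formaldehyde, 1 ug/ml Hoechst) was added. Nuclei counted on 4× images gave relative viability as treated counts over vehicle counts, reported as the median of duplicate plates.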

[2] = system: SK-LU-1
In short: as §1

[3] = system: NCI-H2170
In short: as §1

[4] = system: NCI-H1915
In short: as §1

[5] = system: NCI-H1793
In short: as §1

[6] = system: NCI-H441
In short: as §1

[7] = system: NCI-H23
In short: as §1

[8] = system: NCI-H1944
In short: as §1

[9] = system: NCI-H2342
In short: as §1

[10] = system: HARA
In short: as §1

[11] = system: NCI-H1755
In short: as §1

[12] = system: NCI-H650
In short: as §1

[13] = system: A-427
In short: as §1

[14] = system: NCI-H322M
In short: as §1

[15] = system: LCLC-97TM1
In short: as §1

[16] = system: PC-3 [JPC-3]
In short: as §1

[17] = system: LXF-289
In short: as §1

[18] = system: NCI-H460
In short: as §1

[19] = system: NCI-H2023
In short: as §1

[20] = system: LU99A
In short: as §1

[21] = system: BEN
In short: as §1

[22] = system: NCI-H1395
In short: as §1

[23] = system: NCI-H2126
In short: as §1

[24] = system: NCI-H1666
In short: as §1

[25] = system: LOU-NH91
In short: as §1

CCCCCCCCCCCC1=C(O)C(=O)C=C(O)C1=O [Embelin] + CCNC(=O)c1noc(-c2cc(C(C)C)c(O)cc2O)c1-c1ccc(CN2CCOCC2)cc1 [Luminespib] (partner 0.01 µM)
relative viability ([1]; first compound 0.08 µM): 0.568 | relative viability ([1]; first compound 0.8 µM): 0.573 | relative viability ([1]; first compound 2.53 µM): 0.526 | relative viability ([1]; first compound 8 µM): 0.487 | relative viability ([2]; first compound 0.08 µM): 0.206 | relative viability ([2]; first compound 0.8 µM): 0.186 | relative viability ([2]; first compound 2.53 µM): 0.182 | relative viability ([2]; first compound 8 µM): 0.204 | relative viability ([3]; first compound 0.08 µM): 0.701 | relative viability ([3]; first compound 0.8 µM): 0.753 | relative viability ([3]; first compound 2.53 µM): 0.397 | relative viability ([3]; first compound 8 µM): 0.589 | relative viability ([4]; first compound 0.08 µM): 0.818 | relative viability ([4]; first compound 0.8 µM): 0.819 | relative viability ([4]; first compound 2.53 µM): 0.853 | relative viability ([4]; first compound 8 µM): 0.892 | relative viability ([5]; first compound 0.08 µM): 0.175 | relative viability ([5]; first compound 0.8 µM): 0.192 | relative viability ([5]; first compound 2.53 µM): 0.207 | relative viability ([5]; first compound 8 µM): 0.186 | relative viability ([6]; first compound 0.08 µM): 0.32 | relative viability ([6]; first compound 0.8 µM): 0.294 | relative viability ([6]; first compound 2.53 µM): 0.332 | relative viability ([6]; first compound 8 µM): 0.33 | relative viability ([7]; first compound 0.08 µM): 0.228 | relative viability ([7]; first compound 0.8 µM): 0.212 | relative viability ([7]; first compound 2.53 µM): 0.221 | relative viability ([7]; first compound 8 µM): 0.232 | relative viability ([8]; first compound 0.08 µM): 0.726 | relative viability ([8]; first compound 0.8 µM): 0.849 | relative viability ([8]; first compound 2.53 µM): 0.882 | relative viability ([8]; first compound 8 µM): 0.78 | relative viability ([9]; first compound 0.08 µM): 0.758 | relative viability ([9]; first compound 0.8 µM): 0.902 | relative viability ([9]; first compound 2.53 µM): 0.826 | relative viability ([9]; first compound 8 µM): 0.645 | relative viability ([10]; first compound 0.08 µM): 0.832 | relative viability ([10]; first compound 0.8 µM): 0.919 | relative viability ([10]; first compound 2.53 µM): 0.987 | relative viability ([10]; first compound 8 µM): 0.821 | relative viability ([11]; first compound 0.08 µM): 0.257 | relative viability ([11]; first compound 0.8 µM): 0.603 | relative viability ([11]; first compound 2.53 µM): 0.637 | relative viability ([11]; first compound 8 µM): 0.421 | relative viability ([12]; first compound 0.08 µM): 0.712 | relative viability ([12]; first compound 0.8 µM): 0.986 | relative viability ([12]; first compound 2.53 µM): 0.888 | relative viability ([12]; first compound 8 µM): 0.637 | relative viability ([13]; first compound 0.08 µM): 0.976 | relative viability ([13]; first compound 0.8 µM): 0.998 | relative viability ([13]; first compound 2.53 µM): 0.966 | relative viability ([13]; first compound 8 µM): 1.18 | relative viability ([14]; first compound 0.08 µM): 0.951 | relative viability ([14]; first compound 0.8 µM): 1.04 | relative viability ([14]; first compound 2.53 µM): 1.19 | relative viability ([14]; first compound 8 µM): 0.83 | relative viability ([15]; first compound 0.08 µM): 0.78 | relative viability ([15]; first compound 0.8 µM): 0.899 | relative viability ([15]; first compound 2.53 µM): 0.907 | relative viability ([15]; first compound 8 µM): 0.872 | relative viability ([16]; first compound 0.08 µM): 0.798 | relative viability ([16]; first compound 0.8 µM): 0.752 | relative viability ([16]; first compound 2.53 µM): 0.724 | relative viability ([16]; first compound 8 µM): 0.599 | relative viability ([17]; first compound 0.08 µM): 0.548 | relative viability ([17]; first compound 0.8 µM): 0.619 | relative viability ([17]; first compound 2.53 µM): 0.781 | relative viability ([17]; first compound 8 µM): 0.751 | relative viability ([18]; first compound 0.08 µM): 0.0322 | relative viability ([18]; first compound 0.8 µM): 0.0396 | relative viability ([18]; first compound 2.53 µM): 0.0367 | relative viability ([18]; first compound 8 µM): 0.029 | relative viability ([19]; first compound 0.08 µM): 0.813 | relative viability ([19]; first compound 0.8 µM): 0.914 | relative viability ([19]; first compound 2.53 µM): 0.773 | relative viability ([19]; first compound 8 µM): 0.372 | relative viability ([20]; first compound 0.08 µM): 0.273 | relative viability ([20]; first compound 0.8 µM): 0.275 | relative viability ([20]; first compound 2.53 µM): 0.28 | relative viability ([20]; first compound 8 µM): 0.279 | relative viability ([21]; first compound 0.08 µM): 0.29 | relative viability ([21]; first compound 0.8 µM): 1.12 | relative viability ([21]; first compound 2.53 µM): 0.435 | relative viability ([21]; first compound 8 µM): 0.517 | relative viability ([22]; first compound 0.08 µM): 0.741 | relative viability ([22]; first compound 0.8 µM): 0.928 | relative viability ([22]; first compound 2.53 µM): 0.783 | relative viability ([22]; first compound 8 µM): 0.631 | relative viability ([23]; first compound 0.08 µM): 0.838 | relative viability ([23]; first compound 0.8 µM): 1.01 | relative viability ([23]; first compound 2.53 µM): 0.965 | relative viability ([23]; first compound 8 µM): 0.927 | relative viability ([24]; first compound 0.08 µM): 1.04 | relative viability ([24]; first compound 0.8 µM): 1.01 | relative viability ([24]; first compound 2.53 µM): 1.04 | relative viability ([24]; first compound 8 µM): 1.01 | relative viability ([25]; first compound 0.08 µM): 0.429 | relative viability ([25]; first compound 0.8 µM): 0.369 | relative viability ([25]; first compound 2.53 µM): 0.36 | relative viability ([25]; first compound 8 µM): 0.299
